Data on 26 compounds can be found in US20230079107A1, “COMPOSITIONS AND METHODS FOR THE TREATMENT OF HUMAN IMMUNODEFICIENCY VIRUS” (Cidara Therapeutics, Inc., priority 2019, published 2023).

Format in all cases: cell-based
One data set is described as follows: in vitro. On the set-up: TC50: unit not given beside the values. To be noted: human. Here is the method:
(§1) In these studies, cytotoxicity was also evaluated (TC50). Test materials were derived by measuring the reduction of the tetrazolium dye XTT (2,3-bis(2-methoxy-4-nitro-5-sulfophenyl)-5-[(phenylamino)carbonyl]-2H-tetrazolium hydroxide). XTT in metabolically active cells is metabolized by the mitochondrial enzyme NADPH oxidase to a soluble formazan product. XTT solution was prepared daily as a stock of 1 mg/mL in RPMI-1640 without additives. Phenazine methosulfate (PMS) solution was prepared at 0.15 mg/mL in DPBS and stored in the dark at −20° C. XTT/PMS stock was prepared immediately before use by adding 40 μL of PMS per mL of XTT solution. 50 μL of XTT/PMS was added to each well of the plate and the plate incubated for 4 hours at 37° C. The 4 hour incubation has been empirically determined to be within the linear response range for XTT dye reduction with the indicated numbers of cells for each assay. The plates were sealed and inverted several times to mix the soluble formazan product and the plate was read at 450 nm (650 nm reference wavelength) with a Molecular Devices SpectraMax Plus 384 96 well plate format spectrophotometer.
as §1, with “Fifty L (50 μL)” for “50 μL”
as §1, with “studies” for “studies,”, “Fifty L (50 μL)” for “50 μL”
(§2) In these studies, cytotoxicity was also evaluated (TC50). Test materials were derived by measuring the reduction of the tetrazolium dye XTT (2,3-bis(2-methoxy-4-nitro-5-sulfophenyl)-5-[(phenylamino)carbonyl]-2H-tetrazolium hydroxide). XTT in metabolically active cells is metabolized by the mitochondrial enzyme NADPH oxidase to a soluble formazan product. XTT solution was prepared daily as a stock of 1 mg/mL in RPMI-1640 without additives.

In data set [1] the target is cell-cell fusion of HeLa-CD4-LTR-β-Gal and HL2/3 cells mediated by gp120 and CD4 interaction (UniProt P04578).
For data set [2], the system named is HeLa-CD4-LTR-β-Gal and HL2/3 cells (cell viability). The data set is described as follows: in vitro. Set-up: TC50: unit not given beside the values. The settings on record: Example 36, Table 9, XTT. Here is the method:
as §1
as §1, with “Fifty L (50 μL)” for “50 μL”
as §1, with “studies” for “studies,”, “Fifty L (50 μL)” for “50 μL”
as §2

Setting [3] is: Example 11, Table 5, XTT, read-out: TC50 (the source's name).
[4] abbreviates: Example 19, Table 6, Run 1, XTT, read-out: TC50 [μM] Run 1.
The mark [5] stands for this setting: Example 19, Table 6, Run 2, XTT, read-out: TC50 [μM] Run 2.
Setting [6] is: Example 19, Table 6, Run 3, XTT, read-out: TC50 [μM] Run 3.
[7] abbreviates: Example 33, Table 7, XTT, read-out: TC50 (nM) (Tox).

Like-named read-outs stand apart in the source and are kept apart here.

In the case of `COc1cc(-c2ccc(/N=N/c3ccc4c(S(=O)(=O)O)cc(S(=O)(=O)O)c(N)c4c3O)c(OC)c2)ccc1/N=N/c1ccc2c(S(=O)(=O)O)cc(S(=O)(=O)O)c(N)c2c1O` [CSB, Chicago Sky Blue, reference compound], the CC50 in “in vitro” (setting [3]), in “in vitro” (setting [4]), in the data set “in vitro” (setting [5]), in “in vitro” (setting [6]) and in “in vitro” (setting [7]) was over 10 µM each time.
With `C#CCOCCOCCOCCOCCNC(=O)c1nc(-c2ncc(OC)c3c(C(=O)C(=O)N4CCC(=C(C#N)c5ccccc5)CC4)c[nH]c23)cs1` [Int-1], the CC50 in the data set “in vitro” (setting [3]) and in “in vitro” (setting [4]) was over 10 µM in each case.
With `C#CCOCCOCCOCCOCCNC(=O)c1ncn(-c2ncc(OC)c3c(C(=O)C(=O)N4CCC(=C(C#N)c5ccccc5)CC4)c[nH]c23)n1` [Int-2], the CC50 in the data set “in vitro” (setting [5]) and in “in vitro” (setting [6]) was over 10 µM throughout. Besides, the “fusion inhibition activity, in words” value in data set [1] is “highly active”.
As to `C#CCOCCOCCNC(=N)NCCNC(=O)c1csc(-c2ncc(OC)c3c(C(=O)C(=O)N4CCC(=C(C#N)c5ccccc5)CC4)c[nH]c23)n1` [Int-3], the CC50 in “in vitro” (setting [3]) and in “in vitro” (setting [4]) was over 10 µM each time.
For the compound `C#CCOCCOCCOCCOCC(O)CNC(=O)c1nc(-c2ncc(OC)c3c(C(=O)C(=O)N4CCC(=C(C#N)c5ccccc5)CC4)c[nH]c23)cs1` (stereo not shown) [Int-4], in “in vitro” (setting [5]), the CC50 was over 10 µM. Further, the “fusion inhibition activity, in words” value in data set [1] is given as “highly active”.
With `C#CCOCCOCCOCCOCCNC(=O)COCc1ncn(-c2ncc(OC)c3c(C(=O)C(=O)N4CCN(C(=O)c5ccccc5)CC4)c[nH]c23)n1` [Int-5], the CC50 in the data set “in vitro” (setting [3]) and in “in vitro” (setting [4]) was over 0.5 µM each time.
As to `COc1cnc(-n2cnc(COCC(=O)NCCOCCOCCOCCOCCOCCON)n2)c2[nH]cc(C(=O)C(=O)N3CCN(C(=O)c4ccccc4)CC3)c12` [Int-6], the CC50 in the data set “in vitro” (setting [3]) and in “in vitro” (setting [4]) was over 0.5 µM each time.
For the compound `C#CCOCCOCCOCCOCCC(=O)NCc1ncn(-c2ncc(OC)c3c(C(=O)C(=O)N4CCN(C(=O)c5ccccc5)CC4)c[nH]c23)n1` [Int-7], the CC50 in the data set “in vitro” (setting [3]) and in “in vitro” (setting [4]) was over 0.5 µM each time.
On to `C#CCOCCOCCOCCOCCOc1cnc(-n2cnc(C)n2)c2[nH]cc(C(=O)C(=O)N3CCN(C(=O)c4ccccc4)CC3)c12` [Int-8], for which the CC50 in “in vitro” (setting [3]) and in the data set “in vitro” (setting [4]) was over 10 µM each time.
Consider `C#CCOCCOCCOCCOCCNC(=O)c1csc(-c2ncc(OC)c3c(C(=O)C(=O)N4CCN(C(=O)c5ccccc5)CC4)c[nH]c23)n1` [Int-9], for which the CC50 in “in vitro” (setting [3]) and in the data set “in vitro” (setting [4]) was over 10 µM throughout.
As to `C#CCOCCOCCNC(=N)NCCNC(=O)c1csc(-c2ncc(OC)c3c(C(=O)C(=O)N4CCN(C(=O)c5ccccc5)CC4)c[nH]c23)n1` [Int-10], the CC50 in “in vitro” (setting [3]) and in the data set “in vitro” (setting [4]) was over 10 µM in each case.
In the case of `C#CCOCCOCCOCCC1CCN(CCNC(=O)c2ncn(-c3ncc(OC)c4c(C(=O)C(=O)N5CCC(=C(C#N)c6ccccc6)CC5)c[nH]c34)n2)CC1` [Int-11], the CC50 in “in vitro” (setting [4]) was over 10 µM.
As to `C#CCOCCOCCOCCOCCC(=O)N(CCCNC(=O)CCOCCNC(=O)c1ncn(-c2ncc(OC)c3c(C(=O)C(=O)N4CCC(=C(C#N)c5ccccc5)CC4)c[nH]c23)n1)C(CO)(CO)CO` [Int-12], the CC50 in the data set “in vitro” (setting [6]) was over 10 µM.
With `C#CCOCCOCCOCCOCCNC(=O)c1cn(-c2ncc(OC)c3c(C(=O)C(=O)N4CCC(=C(C#N)c5ccccc5)CC4)c[nH]c23)nn1` [Int-13], in the data set “in vitro” (setting [6]), the CC50 was over 10 µM.
Still for that read-out and setting: as for `C#CCOCCOCCOCCOCCC(=O)N[C@@H](CS(=O)(=O)O)C(=O)N1CCN(CCNC(=O)c2ncn(-c3ncc(OC)c4c(C(=O)C(=O)N5CCC(=C(C#N)c6ccccc6)CC5)c[nH]c34)n2)CC1` [Int-14], the figure is over 10 µM.
The same measure, in the same setting: the figure for `C#CCOCCOCCOCCOCCC(=O)N(CCCNC(=O)c1ncn(-c2ncc(OC)c3c(C(=O)C(=O)N4CCC(=C(C#N)c5ccccc5)CC4)c[nH]c23)n1)CCS(=O)(=O)O` [Int-15] is over 10 µM; for `C#CCOCCOCCOCCOCCN1CCN(CCNC(=O)c2ncn(-c3ncc(OC)c4c(C(=O)C(=O)N5CCC(=C(C#N)c6ccccc6)CC5)c[nH]c34)n2)CC1` [Int-16] it is over 10 µM.
With `C#CCOCCOCCOCCOCCC(=O)N(CCCNC(=O)c1ncn(-c2ncc(OC)c3c(C(=O)C(=O)N4CCC(=C(C#N)c5ccccc5)CC4)c[nH]c23)n1)C(CO)(CO)CO` [Int-17], the CC50 in the data set “in vitro” (setting [6]) is over 10 µM; in “in vitro” (setting [7]) it was over 0.5 µM.
`C#CCOCCOCCOCCOCCN1CCN(CCCNC(=O)c2ncn(-c3ncc(OC)c4c(C(=O)C(=O)N5CCC(=C(C#N)c6ccccc6)CC5)c[nH]c34)n2)CC1` [Int-18] displayed a TC50 in data set [2] of over 2000. Also, in the data set “in vitro” (setting [7]), the CC50 was over 0.5 µM.
As to `C#CCOCCOCCOCCOCCN1CCN(CCCN2CCN(CCNC(=O)c3ncn(-c4ncc(OC)c5c(C(=O)C(=O)N6CCC(=C(C#N)c7ccccc7)CC6)c[nH]c45)n3)CC2)CC1` [Int-19], the CC50 in “in vitro” (setting [7]) is over 0.5 µM.
On to `C#CCOCCOCCOCCOCCNC(=O)c1ncn(-c2ncc(OC)c3c(C(=O)C(=O)N4CCN(C(=O)c5ccccc5)CC4)c[nH]c23)n1` [Int-20], for which the CC50 in the data set “in vitro” (setting [7]) was over 0.5 µM.
In data set [2], `C#CCOCCOCCOCCOCCN1CCN(CCCN2CCN(CCCNC(=O)c3ncn(-c4ncc(OC)c5c(C(=O)C(=O)N6CCC(=C(C#N)c7ccccc7)CC6)c[nH]c45)n3)CC2)CC1` [Int-22] gave a TC50 of over 2000. The CC50 in “in vitro” (setting [7]) is over 0.5 µM.
The like results for `C#CCOCCOCCOCCOCCC(=O)N(CC(=O)NCCOCCOCCOCCOCCOCCOCCOCCOCCOCCOCCOCCOC)CC(=O)NCCn1cc(COCCOCCOCCOCCNC(=O)c2ncn(-c3ncc(OC)c4c(C(=O)C(=O)N5CCC(=C(C#N)c6ccccc6)CC5)c[nH]c34)n2)nn1` [Int-25] were, in that order, over 2000 and over 0.5 µM.
`C#CCOCCOCCOCCOCCN(CCCO)CCCN(CCCO)CCCNC(=O)c1ncn(-c2ncc(OC)c3c(C(=O)C(=O)N4CCC(=C(C#N)c5ccccc5)CC4)c[nH]c23)n1` [Int-26] showed a TC50 in data set [2] of over 2000.
On the same count and under the same terms, as for `C#CCOCCOCCOCCOCCN1CCN(CCCNC(=O)c2ncn(-c3ncc(OC)c4c(C(=O)C(=O)N5CCC(=C(C#N)c6ccccn6)CC5)c[nH]c34)n2)CC1` [Int-27], the figure is over 2000.
As to enfuvirtide, in data set [2], the TC50 was >1,000. Further, the CC50 in “in vitro” (setting [7]) is over 1 µM.
